# Conditions: buffer; pH 7.4; 200.0 µM
row,Compound,solubility kinetic [µg/mL]
1,Cc1ccc(C(=O)NCCCNC(=O)Cc2ccccc2)cn1,> 46.7
2,CCN(CC)CCNC(=O)c1cc2cc3ccc(OC)cc3nc2o1,45.9
3,O=c1cc(CN2CCOCC2)c2cc(Cl)ccc2o1,> 42
4,O=C(c1ccc(F)cc1)C(C(=O)N1CCCCC1)n1ccccc1=O (centres undefined),> 51.4
5,COc1cccc(NC(=S)NC(=O)Cc2ccccc2)c1,16
6,Cn1c(=NC(=O)COc2ccccc2)sc2cc(F)cc(F)c21,< 0.4
7,COC(=O)c1c(Sc2ccccc2)c2ccccc2n1C,< 0.6
8,CC(C)CNC(=O)CO/N=C/c1ccccc1Cl,> 40.3
9,Cc1ccc(S(=O)(=O)N2CCC[C@H]2C(=O)OCC(=O)N2CCc3ccccc32)cc1,10.8
10,CCc1noc(C)c1C(=O)Nc1nc2c(C)cc(C)cc2s1,3.2
11,O=C(NCc1ccccc1F)c1ccncc1,29.5
12,N#C/C(=C(/O)C(Cl)(Cl)Cl)c1nc2ccccc2[nH]1,12.1
13,O=C(NC1CC1)c1c(O)c2ccccc2[nH]c1=O,2.8
14,CCOc1ccccc1C(=O)NN1CCOCC1,> 37.5
15,COc1ccc(/C=C/c2cc(C(F)(F)F)on2)cc1,1.3
16,N#Cc1ccc(COC(=O)CCc2c[nH]c3ccccc23)cc1,3
17,CC(=O)Nc1ccc(S(=O)(=O)NC2Cc3ccccc3C2)cc1,6.8
18,COc1ccccc1C1=NOC(COC(=O)c2ccc([N+](=O)[O-])cc2)C1 (centres undefined),< 0.4
19,Clc1ccc(CN2CCSCC2)c(Cl)c1,0.9
20,Cc1cnc(NC(=O)Cc2ccccc2Cl)s1,1.1

row,Compound,solubility kinetic [µg/mL]
1,C=CCSc1nc2c(c(=O)[nH]1)C(c1ccccc1)C(C#N)=C(N)O2 (centres undefined),48.7
2,Cc1cc(C)cc(OCC(=O)Nc2cc(C)on2)c1,1.5
3,Cc1cccn2c(=O)c3cc(C(=O)N4COCC4(C)C)sc3nc12,9.2
4,O=C(COc1ccc2c(c1)OCO2)Nc1cccc(F)c1,21.5
5,CC(C)Oc1ccc(C(=O)Nc2nc3ccccc3[nH]2)cc1,1.3
6,CC(C)CCN1C(=O)c2ccc(C(=O)OCC(=O)N(CC(C)C)C3CCS(=O)(=O)C3)cc2C1=O (centres undefined),46.8
7,OCC1(CCCc2ccccc2)CCN(C2CCC2)CC1,> 43.1
8,O=C(CSc1ccccc1)N1CCN(C(=O)c2ccco2)CC1,> 49.6
9,CCOc1ccc(S(=O)(=O)NC(Cc2cnc[nH]2)C(=O)O)cc1 (centres undefined),25.8
10,CC(C)(C)NC(=O)C(OC(=O)c1cccs1)c1ccc(F)cc1 (centres undefined),1.3
11,CCOC(=O)Cc1cnc(N)s1,27.6
12,CCCC(=O)Nc1cc(OC)c(C(=O)OC)cc1Cl,> 42.9
13,O=C(COC(=O)Cc1ccccc1F)NCCc1ccccc1,> 47.3
14,CCc1nc2ccccc2c(C(=O)OCc2nc3ccccc3c(=O)[nH]2)c1C,14.5
15,CC(=O)c1cccc(Nc2c([N+](=O)[O-])c(=O)oc3ccccc23)c1,0.9
16,Cc1ccc(C)c(-n2c3nc(=O)n(C)c(=O)c-3cc3ccccc32)c1,> 49.7
17,Cc1ccc(SC(C)C(=O)N2CCC(C(N)=O)CC2)cc1 (centres undefined),30.4
18,O=C(Nc1ccc(F)cc1)Nc1ccccc1N1CCCCC1,0.3
19,COc1ccc(S(=O)(=O)NC2CC2)cc1Cl,35.3
20,O=C(NCc1ccccc1)C12CC3CC(CC(Cl)(C3)C1)C2,5

row,Compound,solubility kinetic [µg/mL]
1,O=c1c2ccccc2ncn1-c1ccccc1[N+](=O)[O-],35.9
2,Cc1ccc(NC(=O)COC(=O)C2CCC2)cc1S(=O)(=O)N1CCOCC1,> 59.5
3,COc1ccc(NS(=O)(=O)c2ccc(C(=O)NCC3(N4CCOCC4)CCCCC3)cc2)cc1,13.8
4,O=C(O)/C=C/C(=O)Nc1ccc(C(=O)c2ccccc2)cc1,> 44.3
5,O=C(CNC(=O)c1ccco1)Nc1ccc(Cl)cc1,24.1
6,Cc1ccc2cc([N+](=O)[O-])ccc2n1,20.5
7,O=C(/C=C/c1ccco1)NC(=S)Nc1ccc(C(=O)O)cc1,> 47.4
8,CN1C(=O)N(C)C(=O)C2(Cc3cc([N+](=O)[O-])ccc3N(C)C2)C1=O,5.3
9,O=C(COc1ccccc1)N1CCN=C1SCc1cccc(F)c1,3.4
10,CCOc1cc(N2CCOCC2)c(OCC)cc1NC(=O)Cn1cnnn1,> 56.5
11,C=CCN1C(=O)C2(OCCCO2)c2cc(CCCC)ccc21,4.5
12,O=C(O)CN1C(=O)C(=O)N(Cc2ccc(Cl)cc2Cl)C1=O,> 49.7
13,O=C(CNC(=O)c1ccc(Cl)cc1)NC1CCCCC1,6.6
14,O=S1(=O)CCN(Cc2ccccc2C(F)(F)F)CC1,> 44
15,Cc1ccc(C(=O)NCCCc2ccccc2)c(Cl)c1,31.9
16,COCCCNc1nc2nonc2nc1N(C)CC1CCCN1C (centres undefined),43.5
17,COC(=O)c1c(C)[nH]c(C=Nc2ccc(OC)cc2)c1C,30
18,CC(C)c1ccc(NC(=O)Cc2c(C(=O)O)n(C)c3ccccc23)cc1,> 52.6
19,O=C(NCCc1cccc(Cl)c1)c1cc2ccccc2oc1=O,< 0.7
